Results as given in paper PMC4303309 (Biochemistry, 2014).

Biological target: DaCld (Dechloromonas aromatica (nom. nud.), UniProt Q47CX0)
Conditions: MCD as HOCl trap

DaCld, sequence (Q47CX0 35-282 limits assumed): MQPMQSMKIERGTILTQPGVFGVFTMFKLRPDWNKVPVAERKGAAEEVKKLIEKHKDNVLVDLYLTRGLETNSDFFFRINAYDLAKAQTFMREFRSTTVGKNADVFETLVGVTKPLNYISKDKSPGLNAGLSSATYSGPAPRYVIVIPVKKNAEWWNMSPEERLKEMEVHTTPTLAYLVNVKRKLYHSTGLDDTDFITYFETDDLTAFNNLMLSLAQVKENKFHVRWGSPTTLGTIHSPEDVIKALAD

## [O-][Cl+]O [chlorite]
  reaction with chlorite in the presence of MCD (UV-visible): no MCD-trappable HOCl could be detected for DaCld under conditions similar to those used
